Source: ChEMBL document CHEMBL1909046, “DrugMatrix in vitro pharmacology data”

Experiments:
[1] = DRUGMATRIX: Sodium/nucleoside co-transporter radioligand binding (ligand: nitrobenzylthioinosine); format: cell membranes, Cavia porcellus, Dunkin-Hartley, Cerebral cortex, Membrane; settings: Not Active = under 50% inhibition at 10 µM
[2] = target: Beta-3 adrenergic receptor (Homo sapiens, UniProt P13945); assay: DRUGMATRIX: Adrenergic beta3 radioligand binding (ligand: [125I] Cyanopindolol); format: cell membranes, HEK293, Membrane; settings: hek293; Not Active = under 50% inhibition at 10 µM
Beta-3 adrenergic receptor, sequence (P13945 whole entry): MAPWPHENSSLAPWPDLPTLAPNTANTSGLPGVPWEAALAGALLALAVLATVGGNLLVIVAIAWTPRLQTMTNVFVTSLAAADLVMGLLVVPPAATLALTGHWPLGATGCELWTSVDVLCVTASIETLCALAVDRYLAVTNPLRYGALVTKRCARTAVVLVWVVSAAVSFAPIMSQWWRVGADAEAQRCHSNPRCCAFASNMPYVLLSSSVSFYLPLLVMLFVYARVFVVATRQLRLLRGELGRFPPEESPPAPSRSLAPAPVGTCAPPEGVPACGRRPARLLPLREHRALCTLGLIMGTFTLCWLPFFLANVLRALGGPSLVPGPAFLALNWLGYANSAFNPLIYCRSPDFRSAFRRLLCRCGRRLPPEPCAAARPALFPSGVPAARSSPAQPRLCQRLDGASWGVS

[3] = target: Sodium-dependent noradrenaline transporter (Homo sapiens, UniProt P23975); assay: DRUGMATRIX: Norepinephrine Transporter radioligand binding (ligand: [125I] RTI-55); format: cell membranes, MDCK, Membrane; settings: mdck; Not Active = under 50% inhibition at 10 µM
Sodium-dependent noradrenaline transporter, sequence (P23975 whole entry): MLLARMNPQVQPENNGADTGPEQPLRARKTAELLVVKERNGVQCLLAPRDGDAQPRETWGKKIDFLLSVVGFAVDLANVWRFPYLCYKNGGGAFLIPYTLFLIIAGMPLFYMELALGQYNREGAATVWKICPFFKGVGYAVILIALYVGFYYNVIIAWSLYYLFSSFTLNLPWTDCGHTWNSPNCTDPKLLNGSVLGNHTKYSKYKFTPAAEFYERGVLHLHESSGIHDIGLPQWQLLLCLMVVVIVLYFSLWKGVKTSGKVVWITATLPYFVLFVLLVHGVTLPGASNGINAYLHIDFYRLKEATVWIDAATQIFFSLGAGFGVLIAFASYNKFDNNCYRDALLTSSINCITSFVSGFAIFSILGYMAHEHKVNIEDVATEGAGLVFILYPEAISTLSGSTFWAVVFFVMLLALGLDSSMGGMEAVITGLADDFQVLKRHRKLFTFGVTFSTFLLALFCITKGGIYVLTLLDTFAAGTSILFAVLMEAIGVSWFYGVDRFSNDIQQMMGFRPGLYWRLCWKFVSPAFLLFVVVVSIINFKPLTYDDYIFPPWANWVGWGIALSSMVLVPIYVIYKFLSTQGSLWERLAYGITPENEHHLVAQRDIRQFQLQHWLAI

[4] = DRUGMATRIX: beta-Lactamase enzyme inhibition (substrate: Nitrocefin); set-up: species or system Bacillus cereus; settings: Not Active = under 50% inhibition at 10 µM
[5] = target: 5-hydroxytryptamine receptor 2B (Homo sapiens, UniProt P41595); format: cell membranes, CHO-K1, Membrane; settings: cho-k1; further: in other assays of this panel Not Active means under 50% inhibition at 10 µM
5-hydroxytryptamine receptor 2B, sequence (P41595 whole entry): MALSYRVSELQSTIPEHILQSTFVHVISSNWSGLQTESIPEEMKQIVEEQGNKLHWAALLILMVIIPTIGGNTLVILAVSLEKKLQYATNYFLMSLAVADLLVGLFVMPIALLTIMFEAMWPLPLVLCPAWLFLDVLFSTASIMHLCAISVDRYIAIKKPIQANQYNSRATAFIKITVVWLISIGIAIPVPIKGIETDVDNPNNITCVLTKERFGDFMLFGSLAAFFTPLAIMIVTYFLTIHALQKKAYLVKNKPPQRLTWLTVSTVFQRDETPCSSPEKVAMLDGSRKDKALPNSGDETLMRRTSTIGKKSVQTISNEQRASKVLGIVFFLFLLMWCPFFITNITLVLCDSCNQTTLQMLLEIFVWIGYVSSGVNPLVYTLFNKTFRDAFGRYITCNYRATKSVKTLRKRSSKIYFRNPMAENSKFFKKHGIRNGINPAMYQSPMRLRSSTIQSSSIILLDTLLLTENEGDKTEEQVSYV

[6] = target: 5-hydroxytryptamine receptor 6 (Homo sapiens, UniProt P50406); format: cell membranes, HeLa, Membrane; settings: hela; further: in other assays of this panel Not Active means under 50% inhibition at 10 µM
5-hydroxytryptamine receptor 6, sequence (P50406 whole entry): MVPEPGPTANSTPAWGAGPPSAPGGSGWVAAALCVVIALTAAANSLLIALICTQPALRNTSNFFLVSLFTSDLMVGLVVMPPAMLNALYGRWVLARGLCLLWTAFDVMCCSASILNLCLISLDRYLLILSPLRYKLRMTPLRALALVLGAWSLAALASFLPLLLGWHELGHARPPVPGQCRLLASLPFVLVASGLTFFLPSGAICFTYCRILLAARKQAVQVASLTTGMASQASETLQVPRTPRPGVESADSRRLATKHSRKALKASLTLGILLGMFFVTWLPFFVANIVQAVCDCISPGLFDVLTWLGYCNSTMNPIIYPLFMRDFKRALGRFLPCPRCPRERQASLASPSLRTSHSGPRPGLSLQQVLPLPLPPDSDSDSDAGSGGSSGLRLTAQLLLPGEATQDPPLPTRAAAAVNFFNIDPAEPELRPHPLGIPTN

Thromboxane-A synthase = target: T1, Thromboxane-A synthase (Homo sapiens, UniProt P24557); assay: biochemical; format: tissue-based, Platelet; settings: platelet;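 further: enzyme inhibition assay with PGH2 supplied as substrate; in other assays of this panel Not Active means under 50% inhibition at 10 µM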
T1 sequence (P24557 whole entry): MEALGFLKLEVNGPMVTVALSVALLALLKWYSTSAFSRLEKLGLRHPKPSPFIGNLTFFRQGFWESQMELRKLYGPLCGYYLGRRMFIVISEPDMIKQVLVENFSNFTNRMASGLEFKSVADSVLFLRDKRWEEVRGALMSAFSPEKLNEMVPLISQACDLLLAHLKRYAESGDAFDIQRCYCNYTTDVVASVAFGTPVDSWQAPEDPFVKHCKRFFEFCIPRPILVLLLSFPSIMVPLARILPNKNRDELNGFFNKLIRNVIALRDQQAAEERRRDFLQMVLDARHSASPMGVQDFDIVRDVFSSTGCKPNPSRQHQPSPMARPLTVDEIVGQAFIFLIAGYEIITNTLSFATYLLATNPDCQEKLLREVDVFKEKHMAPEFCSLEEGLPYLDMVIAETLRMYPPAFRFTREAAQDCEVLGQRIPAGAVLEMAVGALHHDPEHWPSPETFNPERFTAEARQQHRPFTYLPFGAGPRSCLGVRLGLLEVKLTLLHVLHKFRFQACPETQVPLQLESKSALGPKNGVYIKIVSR

[7] = target: T2, C-X-C chemokine receptor type 1 (Homo sapiens, UniProt P25024); further: in other assays of this panel Not Active means under 50% inhibition at 10 µM
T2 sequence (P25024 whole entry): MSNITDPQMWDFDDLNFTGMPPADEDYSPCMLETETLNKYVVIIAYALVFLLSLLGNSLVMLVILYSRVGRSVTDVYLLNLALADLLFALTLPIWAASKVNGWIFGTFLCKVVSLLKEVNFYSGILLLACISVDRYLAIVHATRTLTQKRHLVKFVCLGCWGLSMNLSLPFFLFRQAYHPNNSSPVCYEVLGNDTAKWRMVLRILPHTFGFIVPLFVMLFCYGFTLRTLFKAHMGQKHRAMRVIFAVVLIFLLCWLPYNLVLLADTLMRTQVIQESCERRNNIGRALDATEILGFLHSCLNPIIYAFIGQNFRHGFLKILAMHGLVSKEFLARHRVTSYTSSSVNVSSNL

D(3) dopamine receptor = D(3) dopamine receptor (Homo sapiens, UniProt P35462); assay: DRUGMATRIX: Dopamine D3 radioligand binding (ligand: [3H] Spiperone); format: cell membranes, CHO, Membrane; settings: cho
D(3) dopamine receptor, sequence (P35462 whole entry): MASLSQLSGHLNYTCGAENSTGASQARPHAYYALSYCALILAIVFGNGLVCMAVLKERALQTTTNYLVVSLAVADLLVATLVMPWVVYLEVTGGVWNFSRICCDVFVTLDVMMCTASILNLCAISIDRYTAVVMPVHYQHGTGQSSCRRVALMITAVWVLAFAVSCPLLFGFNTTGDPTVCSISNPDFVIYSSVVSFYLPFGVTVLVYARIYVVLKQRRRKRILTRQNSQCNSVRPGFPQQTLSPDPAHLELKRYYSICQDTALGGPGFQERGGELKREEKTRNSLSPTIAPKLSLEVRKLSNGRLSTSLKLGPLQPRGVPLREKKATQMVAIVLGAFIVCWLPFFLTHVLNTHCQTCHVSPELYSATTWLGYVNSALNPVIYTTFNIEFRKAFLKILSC

D(4) dopamine receptor = target: T3, D(4) dopamine receptor (Homo sapiens, UniProt P21917); assay: DRUGMATRIX: Dopamine D4.2 radioligand binding (ligand: [3H] Spiperone); format: cell membranes, CHO-K1, Membrane; settings: cho-k1; Not Active = under 50% inhibition at 10 µM
T3 sequence (P21917 whole entry): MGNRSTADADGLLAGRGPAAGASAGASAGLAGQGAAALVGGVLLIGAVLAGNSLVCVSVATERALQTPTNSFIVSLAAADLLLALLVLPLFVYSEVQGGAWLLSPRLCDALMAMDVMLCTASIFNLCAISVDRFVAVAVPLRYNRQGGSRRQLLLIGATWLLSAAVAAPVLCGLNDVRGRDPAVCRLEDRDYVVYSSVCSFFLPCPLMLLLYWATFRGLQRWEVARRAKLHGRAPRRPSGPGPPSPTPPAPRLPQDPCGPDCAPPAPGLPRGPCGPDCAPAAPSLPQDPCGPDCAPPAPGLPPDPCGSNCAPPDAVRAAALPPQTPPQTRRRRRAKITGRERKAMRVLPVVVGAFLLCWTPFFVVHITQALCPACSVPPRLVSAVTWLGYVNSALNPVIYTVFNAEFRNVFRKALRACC

[8] = DRUGMATRIX: GABAA, Chloride Channel, TBOB radioligand binding (ligand: [3H] TBOB); format: cell membranes, Rattus norvegicus, Wistar, Cerebral cortex, Membrane; settings: Not Active = under 50% inhibition at 10 µM
[9] = DRUGMATRIX: Glutamate, AMPA radioligand binding (ligand: [3H] AMPA); format: cell membranes, Rattus norvegicus, Wistar, Cerebral cortex, Membrane; settings: Not Active = under 50% inhibition at 10 µM
[10] = DRUGMATRIX: Glutamate, Kainate radioligand binding (ligand: [3H] Kainic acid); format: cell membranes, Rattus norvegicus, Wistar, Brain, Membrane; settings: Not Active = under 50% inhibition at 10 µM
Glycine receptor = Glycine receptor (Rattus norvegicus, UniProt P22771+P24524+P07727+P20781); format: cell membranes, Wistar, Spinal cord, Membrane; further: in other assays of this panel Not Active means under 50% inhibition at 10 µM
Histamine H2 receptor = Histamine H2 receptor (Homo sapiens, UniProt P25021); format: cell membranes, CHO-K1, Membrane; settings: cho-k1; further: in other assays of this panel Not Active means under 50% inhibition at 10 µM
Histamine H2 receptor, sequence (P25021 whole entry): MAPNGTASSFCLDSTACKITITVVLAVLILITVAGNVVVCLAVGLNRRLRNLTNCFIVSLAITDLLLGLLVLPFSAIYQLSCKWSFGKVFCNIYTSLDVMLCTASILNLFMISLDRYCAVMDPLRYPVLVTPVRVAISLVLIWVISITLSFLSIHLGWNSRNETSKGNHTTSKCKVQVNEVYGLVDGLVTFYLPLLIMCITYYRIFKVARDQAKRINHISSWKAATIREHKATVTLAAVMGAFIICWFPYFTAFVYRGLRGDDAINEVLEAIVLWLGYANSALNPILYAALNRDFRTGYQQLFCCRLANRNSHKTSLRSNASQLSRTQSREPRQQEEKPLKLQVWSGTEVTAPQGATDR

[11] = DRUGMATRIX: Imidazoline I2, Central radioligand binding (ligand: [3H] Idazoxan); format: cell membranes, Rattus norvegicus, Wistar, Cerebral cortex, Membrane; settings: Not Active = under 50% inhibition at 10 µM
[12] = DRUGMATRIX: Platelet-Derived Growth Factor (PDGF) radioligand binding (ligand: [125I] PDGF); format: cell-based; settings: nih3t3; Not Active = under 50% inhibition at 10 µM

CCOC(=O)c1ccc(N)cc1 [BENZOCAINE]
Not Active: IC50 [1] | Ki [1] | IC50 [2] | IC50 [3] | IC50 [4] | Ki [4] | IC50 [5] | IC50 [6] | IC50 (Thromboxane-A synthase) | IC50 [7] | IC50 (D(3) dopamine receptor) | IC50 (D(4) dopamine receptor) | IC50 [8] | Ki [8] | IC50 [9] | Ki [9] | IC50 [10] | Ki [10] | IC50 (Glycine receptor) | IC50 (Histamine H2 receptor) | IC50 [11] | Ki [11] | IC50 [12] | Ki [12]

OCc1ccccc1 [BENZYL ALCOHOL]
Not Active: IC50 [1] | Ki [1] | IC50 [2] | IC50 [3] | IC50 [4] | Ki [4] | IC50 [5] | IC50 [6] | IC50 (Thromboxane-A synthase) | IC50 [7] | IC50 (D(3) dopamine receptor) | IC50 (D(4) dopamine receptor) | IC50 [8] | Ki [8] | IC50 [9] | Ki [9] | IC50 [10] | Ki [10] | IC50 (Glycine receptor) | IC50 (Histamine H2 receptor) | IC50 [11] | Ki [11] | IC50 [12] | Ki [12]

CC(C)(Oc1ccc(CCNC(=O)c2ccc(Cl)cc2)cc1)C(=O)O [BEZAFIBRATE]
Not Active: IC50 [1] | Ki [1] | IC50 [2] | IC50 [3] | IC50 [4] | Ki [4] | IC50 [5] | IC50 [6] | IC50 (Thromboxane-A synthase) | IC50 [7] | IC50 (D(3) dopamine receptor) | IC50 (D(4) dopamine receptor) | IC50 [8] | Ki [8] | IC50 [9] | Ki [9] | IC50 [10] | Ki [10] | IC50 (Glycine receptor) | IC50 (Histamine H2 receptor) | IC50 [11] | Ki [11] | IC50 [12] | Ki [12]

CCCC[C@@H](CC)COC(=O)c1ccccc1C(=O)OC[C@@H](CC)CCCC [BIS(2-ETHYLHEXYL)PHTHALATE]
Not Active: IC50 [1] | Ki [1] | IC50 [2] | IC50 [3] | IC50 [4] | Ki [4] | IC50 [5] | IC50 [6] | IC50 (Thromboxane-A synthase) | IC50 [7] | IC50 (D(3) dopamine receptor) | IC50 (D(4) dopamine receptor) | IC50 [8] | Ki [8] | IC50 [9] | Ki [9] | IC50 [10] | Ki [10] | IC50 (Glycine receptor) | IC50 (Histamine H2 receptor) | IC50 [11] | Ki [11] | IC50 [12] | Ki [12]

Brc1ccccc1 [BROMOBENZENE]
Not Active: IC50 [1] | Ki [1] | IC50 [2] | IC50 [3] | IC50 [4] | Ki [4] | IC50 [5] | IC50 [6] | IC50 (Thromboxane-A synthase) | IC50 [7] | IC50 (D(3) dopamine receptor) | IC50 (D(4) dopamine receptor) | IC50 [8] | Ki [8] | IC50 [9] | Ki [9] | IC50 [10] | Ki [10] | IC50 (Glycine receptor) | IC50 (Histamine H2 receptor) | IC50 [11] | Ki [11] | IC50 [12] | Ki [12]
